Drawing on US20240299385A1 (ReWind Therapeutics NV, priority 2021, published 2024), this text covers IC50 for 37 molecules.

The assay deals with T1, human GPR17 receptor (Homo sapiens, UniProt Q13304).
T1 construct: host or cells: HEK-293
T1 sequence (Q13304 whole entry): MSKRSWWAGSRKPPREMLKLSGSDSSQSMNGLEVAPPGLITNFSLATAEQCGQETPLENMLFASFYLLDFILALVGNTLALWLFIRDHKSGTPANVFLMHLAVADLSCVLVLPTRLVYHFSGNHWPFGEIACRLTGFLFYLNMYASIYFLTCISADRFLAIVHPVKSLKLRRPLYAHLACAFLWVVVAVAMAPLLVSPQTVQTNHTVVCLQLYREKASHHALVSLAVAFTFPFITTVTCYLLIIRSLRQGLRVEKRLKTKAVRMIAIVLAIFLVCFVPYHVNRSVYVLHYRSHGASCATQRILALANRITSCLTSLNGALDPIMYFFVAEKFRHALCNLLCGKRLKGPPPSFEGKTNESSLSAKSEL
In words: Calcium mobilization functional assay (Fluo-8, FLIPR TETRA) in HEK-293 hGPR17 (Gα-q assay). It counts as cell-based. Particulars: antagonism of MDL29,951 (~EC80) induced Ca2+ signal; cell line (HEK-293 hGPR17 or HEK-293 Suchi5 hGPR17) not given. Here is the method: HEK-293 cells stably expressing the human GPR17 receptor (HEK-293 hGPR17) developed by Axxam (Bresso, Milan, Italy) were cultured at 37° C. in a humidified atmosphere of 5% CO2. Cells were grown in EMEM supplemented with FBS (10%), Penicillin/Streptomycin (1%), Ultraglutamine I (2 mM), puromycin (0.6 μg/mL), G418 (0.4 mg/mL), zeocin (50 μg/mL). This cell line was used to test the compound antagonistic activity by monitoring the Gα-q based signaling. Signaling via Gα-q leads to mobilization of calcium from internal stores. Elevated intracellular calcium levels can then be measured with calcium-sensitive fluorescent dyes (e.g., Fluo 8-No Wash Dye).
GPR17 activation leads to both an increase in intracellular calcium (via Gα-q) and a decrease in cAMP levels (via Gα-i), implicating that both of these pathways play a role for in vivo function.
Experiments were performed using the below cell lines, as described in part 1: • HEK-293 hGPR17 (used to study the compounds acting via Gα-q pathway) • HEK-293 Suchi5 hGPR17 (used to study the compounds acting via Gα-i pathway, where the Gα-i signaling is switched to a Gα-q signaling thanks to the Gα-i/q chimera Suchi5)
GPR17 activation was able to induce an endoplasmic reticulum calcium (Ca^2+) store release in cytosol which could be measured using the fluorescent Ca^2+ sensitive dye Fluo-8 No Wash Dye as readout.
HEK-293 hGPR17 and HEK-293 Suchi5 hGPR17 were seeded at a density of 15,000 cells/well into poly-D-lysine coated black 384-well plates with clear bottom in complete medium. Cells were incubated overnight at 37° C. in a humidified atmosphere of 5% CO2. Twenty-four hours after seeding, the culture medium was carefully removed manually and the cells were loaded for 60 minutes at room temperature with the Ca^2+ sensitive Fluo-8 No Wash Dye, according to manufacturer's instructions. Cells were then assayed using a fluorometric imaging plate reader (FLIPR^TETRA). Fluorescence (excitation: 470-495 nm; emission: 515-575 nm) was recorded during the experiment. […] After twenty minutes, a second injection of MDL29,951 at ˜EC80 (500 nM for HEK-293 hGPR17 and 2 nM for HEK-293 Suchi5 hGPR17) in assay buffer was performed at the FLIPR^TETRA and the signal of the emitted fluorescence was recorded for additional 2 minutes. All the compound injections and incubations were performed in duplicate. For data quality and data analysis the Screener® 16.0.6 (Genedata) software was used.
On to `CC(c1ccccn1)c1cc(S(=O)(=O)Nc2ccc(C#N)cc2F)c[nH]1` (stereo not shown), for which the half-inhibitory concentration (IC50) lay in the range of 5 to 50 µM.
Regarding `Cc1[nH]c(-c2ccccc2)cc1S(=O)(=O)Nc1ccc(C#N)cc1F` [Cpd 001, N-(4-cyano-2-fluorophenyl)-2-methyl-5-phenyl-1H-pyrrole-3-sulfonamide], the concentration for half-maximal inhibition (IC50) was 0.5 to 5 µM.
In the case of `N#Cc1ccc(NS(=O)(=O)c2c[nH]c(-c3ccccc3)c2)c(F)c1` [Cpd 002, N-(4-cyano-2-fluorophenyl)-5-phenyl-1H-pyrrole-3-sulfonamide], the IC50 was less than 0.5 µM.
With `O=S(=O)(Nc1cc(F)c(Br)cc1F)c1c[nH]c(-c2ccccc2)c1` [Cpd 003, N-(4-bromo-2,5-difluoro-phenyl)-5-phenyl-1H-pyrrole-3-sulfonamide] the figure was less than 0.5 µM; with `N#Cc1ccc(NS(=O)(=O)c2c[nH]c(-c3cccc(F)c3)c2)c(F)c1` [Cpd 004, N-(4-cyano-2-fluoro-phenyl)-5-(3-fluorophenyl)-1H-pyrrole-3-sulfonamide], less than 0.5 µM.
`Cc1cccc(-c2cc(S(=O)(=O)Nc3ccc(C#N)cc3F)c[nH]2)c1` [Cpd 005, N-(4-cyano-2-fluoro-phenyl)-5-(m-tolyl)-1H-pyrrole-3-sulfonamide]: the IC50 is less than 0.5 µM.
For `N#Cc1ccc(NS(=O)(=O)c2c[nH]c(-c3cccc(Cl)c3)c2)c(F)c1` [Cpd 006, 5-(3-chlorophenyl)-N-(4-cyano-2-fluoro-phenyl)-1H-pyrrole-3-sulfonamide], the IC50 was less than 0.5 µM.
In the case of `N#Cc1ccc(NS(=O)(=O)c2c[nH]c(-c3ccc(F)cc3)c2)c(F)c1` [Cpd 007, N-(4-cyano-2-fluoro-phenyl)-5-(4-fluorophenyl)-1H-pyrrole-3-sulfonamide], the concentration for half-maximal inhibition (IC50) was less than 0.5 µM.
As for `Cc1ccc(-c2cc(S(=O)(=O)Nc3ccc(C#N)cc3F)c[nH]2)cc1` [Cpd 008, N-(4-cyano-2-fluoro-phenyl)-5-(p-tolyl)-1H-pyrrole-3-sulfonamide], the half-maximal inhibitory concentration (IC50) lay within 0.5 to 5 µM.
With `N#Cc1ccc(NS(=O)(=O)c2c[nH]cc2-c2ccccc2)c(F)c1` [Cpd 009, N-(4-cyano-2-fluorophenyl)-4-phenyl-1H-pyrrole-3-sulfonamide] the figure was 0.5 to 5 µM; with `COc1cccc(-c2cc(S(=O)(=O)Nc3ccc(C#N)cc3F)c[nH]2)c1` [Cpd 010, N-(4-cyano-2-fluoro-phenyl)-5-(3-methoxyphenyl)-1H-pyrrole-3-sulfonamide], less than 0.5 µM; with `N#Cc1ccc(NS(=O)(=O)c2c[nH]c(-c3ccc(Cl)cc3)c2)c(F)c1` [Cpd 011, 5-(4-chlorophenyl)-N-(4-cyano-2-fluoro-phenyl)-1H-pyrrole-3-sulfonamide], 0.5 to 5 µM.
Turning to `COc1ccc(-c2cc(S(=O)(=O)Nc3ccc(C#N)cc3F)c[nH]2)cc1` [Cpd 012, N-(4-cyano-2-fluoro-phenyl)-5-(4-methoxyphenyl)-1H-pyrrole-3-sulfonamide], the concentration for half-maximal inhibition (IC50) lay within 5 to 50 µM.
Take `N#Cc1ccc(NS(=O)(=O)c2c[nH]c(C(=O)c3ccccc3)c2)c(F)c1` [Cpd 013, 5-benzoyl-N-(4-cyano-2-fluoro-phenyl)-1H-pyrrole-3-sulfonamide]: the IC50 was in the range of 5 to 50 µM.
Regarding `N#Cc1ccc(NS(=O)(=O)c2c[nH]c(-c3ccccc3F)c2)c(F)c1` [Cpd 014, N-(4-cyano-2-fluorophenyl)-5-(2-fluorophenyl)-1H-pyrrole-3-sulfonamide], the IC50 was less than 0.5 µM.
With `Cc1ccccc1-c1cc(S(=O)(=O)Nc2ccc(C#N)cc2F)c[nH]1` [Cpd 015, N-(4-cyano-2-fluoro-phenyl)-5-(o-tolyl)-1H-pyrrole-3-sulfonamide], the concentration for half-maximal inhibition (IC50) is less than 0.5 µM.
For `N#Cc1ccc(NS(=O)(=O)c2c[nH]c(-c3ccccc3Cl)c2)c(F)c1` [Cpd 016, 5-(2-chlorophenyl)-N-(4-cyano-2-fluoro-phenyl)-1H-pyrrole-3-sulfonamide], the IC50 is less than 0.5 µM.
`COc1ccccc1-c1cc(S(=O)(=O)Nc2ccc(C#N)cc2F)c[nH]1` [Cpd 017, N-(4-cyano-2-fluoro-phenyl)-5-(2-methoxyphenyl)-1H-pyrrole-3-sulfonamide]: the IC50 is less than 0.5 µM.
For `N#Cc1ccc(NS(=O)(=O)c2c[nH]c(C3CCCC3)c2)c(F)c1` [Cpd 018, N-(4-cyano-2-fluorophenyl)-5-cyclopentyl-1H-pyrrole-3-sulfonamide], the IC50 lay in the range of 0.5 to 5 µM.
Regarding `N#Cc1ccc(NS(=O)(=O)c2c[nH]c(Cc3ccccc3)c2)c(F)c1` [Cpd 019, 5-benzyl-N-(4-cyano-2-fluoro-phenyl)-1H-pyrrole-3-sulfonamide], the IC50 lay in the range of 0.5 to 5 µM.
With `N#Cc1ccc(NS(=O)(=O)c2cc(-c3ccccc3)[nH]c2F)c(F)c1` [Cpd 020, N-(4-cyano-2-fluorophenyl)-2-fluoro-5-phenyl-1H-pyrrole-3-sulfonamide] the figure was 0.5 to 5 µM.
Take `N#Cc1ccc(NS(=O)(=O)c2c[nH]c(-c3cccc(C(F)(F)F)c3)c2)c(F)c1` [Cpd 021, N-(4-cyano-2-fluoro-phenyl)-5-[3-(trifluoromethyl)phenyl]-1H-pyrrole-3-sulfonamide]: the IC50 was in the range of 0.5 to 5 µM.
For the molecule `CC(C)c1cccc(-c2cc(S(=O)(=O)Nc3ccc(C#N)cc3F)c[nH]2)c1` [Cpd 022, N-(4-cyano-2-fluoro-phenyl)-5-(3-isopropylphenyl)-1H-pyrrole-3-sulfonamide], the half-inhibitory concentration (IC50) lay in the range of 5 to 50 µM.
`N#Cc1ccc(NS(=O)(=O)c2c[nH]c(-c3ccccc3)c2F)c(F)c1` [Cpd 023, N-(4-cyano-2-fluorophenyl)-4-fluoro-5-phenyl-1H-pyrrole-3-sulfonamide]: the half-maximal inhibitory concentration (IC50) is less than 0.5 µM.
Next, `N#Cc1ccc(NS(=O)(=O)c2c[nH]c(-c3ccncc3)c2)c(F)c1` [Cpd 024, N-(4-cyano-2-fluoro-phenyl)-5-(4-pyridyl)-1H-pyrrole-3-sulfonamide]: 5 to 50 µM; `N#Cc1cccc(-c2cc(S(=O)(=O)Nc3ccc(C#N)cc3F)c[nH]2)c1` [Cpd 025, N-(4-cyano-2-fluoro-phenyl)-5-(3-cyanophenyl)-1H-pyrrole-3-sulfonamide]: less than 0.5 µM; `N#Cc1ccc(NS(=O)(=O)c2c[nH]c(-c3ccccn3)c2)c(F)c1` [Cpd 026, N-(4-cyano-2-fluoro-phenyl)-5-(2-pyridyl)-1H-pyrrole-3-sulfonamide]: less than 0.5 µM.
For the molecule `N#Cc1ccc(NS(=O)(=O)c2c[nH]c(-c3cccnc3)c2)c(F)c1` [Cpd 027, N-(4-cyano-2-fluoro-phenyl)-5-(3-pyridyl)-1H-pyrrole-3-sulfonamide], the half-maximal inhibitory concentration (IC50) fell in the range of 0.5 to 5 µM.
For the molecule `N#Cc1cc(F)c(NS(=O)(=O)c2c[nH]c(-c3ccccc3)c2)cc1F` [Cpd 028, N-(4-cyano-2,5-difluoro-phenyl)-5-phenyl-1H-pyrrole-3-sulfonamide], the half-inhibitory concentration (IC50) is less than 0.5 µM.
Turning to `Cc1cc(C#N)ccc1NS(=O)(=O)c1c[nH]c(-c2ccccc2)c1` [Cpd 029, N-(4-cyano-2-methyl-phenyl)-5-phenyl-1H-pyrrole-3-sulfonamide], the 50% inhibitory concentration (IC50) was 5 to 50 µM.
In the case of `COc1cc(C#N)ccc1NS(=O)(=O)c1c[nH]c(-c2ccccc2)c1` [Cpd 030, N-(4-cyano-2-methoxy-phenyl)-5-phenyl-1H-pyrrole-3-sulfonamide], the half-inhibitory concentration (IC50) was in the range of 0.5 to 5 µM.
Next, `Cc1cc(NS(=O)(=O)c2c[nH]c(-c3ccccc3)c2)ccc1C#N` [Cpd 031, N-(4-cyano-3-methyl-phenyl)-5-phenyl-1H-pyrrole-3-sulfonamide]: 0.5 to 5 µM; `COc1ccc(NS(=O)(=O)c2c[nH]c(-c3ccccc3)c2)c(F)c1` [Cpd 032, N-(2-fluoro-4-methoxy-phenyl)-5-phenyl-1H-pyrrole-3-sulfonamide]: 5 to 50 µM; `Cc1c(S(=O)(=O)Nc2ccc(C#N)cc2F)c[nH]c1-c1ccccc1` [Cpd 033, N-(4-cyano-2-fluoro-phenyl)-4-methyl-5-phenyl-1H-pyrrole-3-sulfonamide]: less than 0.5 µM.
Regarding `N#Cc1ccc(NS(=O)(=O)c2c[nH]cc2Cc2ccccc2)c(F)c1` [Cpd 034, 4-benzyl-N-(4-cyano-2-fluorophenyl)-1H-pyrrole-3-sulfonamide], the IC50 is less than 0.5 µM.
With `N#Cc1ccc(NS(=O)(=O)c2c[nH]c(-c3ccccc3)c2)cc1F` [Cpd 035, N-(4-cyano-3-fluoro-phenyl)-5-phenyl-1H-pyrrole-3-sulfonamide] the figure was less than 0.5 µM; with `N#Cc1ccc(NS(=O)(=O)c2c[nH]c(-c3ccccc3)c2)c(Cl)c1` [Cpd 036, N-(2-chloro-4-cyano-phenyl)-5-phenyl-1H-pyrrole-3-sulfonamide], 0.5 to 5 µM.
